Test results: patent US20230322865A1 (priority 2020, published 2023)
Peptide text beside a SMILES is read from it. * marks the point of attachment. Propyl(2R-PamO,3-PamO) = CCCCCCCCCCCCCCCC(=O)OC[C@H](C*)OC(=O)CCCCCCCCCCCCCCC; Palmitoyl = CCCCCCCCCCCCCCCC(=O)*

Tests used:
peptide-specific T-cells = experiment: Self-vaccination of a healthy volunteer with SARS-CoV-2-derived peptides, XS15 and Montanide; type: in vivo, human
Description: Development of antibody-dependent enhancement (ADE) antibodies has been identified as potential risk for infected patients after vaccination approaches; see Graham B S. Rapid COVID-19 vaccine development. Science. 2020. In contrast to other classical vaccines aiming to induce an antibody-response to prevent viral infections the CoVac-1 vaccine is designed to induce SARS-CoV-2 specific T-cells. […] Therefore, there is compared to other vaccine approaches only minimal risk of induction of ADE antibodies by the CoVac-1 vaccine.
A more current report of self-vaccination of the same individual includes the administration of SARS-CoV-2-derived peptides performed in March 2020. Here, the self-experimenting healthy volunteer used eight SARS-CoV-2-derived peptides: five predicted to bind to HLA class I molecules (CD8 peptides) and three predicted to bind to HLA-DR molecules (CD4 peptides, including two peptides from the CoVac-1 vaccine). […] About 3 weeks after a single vaccination, using a vaccine containing the mentioned synthetic peptides, Montanide and containing 50 μg XS15, strong vaccine-induced CD4^+ T-cell responses against all […] HLA-DR peptides and against the recall CMV epitope could be detected. No T-cell responses against the five predicted SARS-CoV-2 HLA class I peptides could be detected by ex vivo Interferon-γ ELISpot assay. […]

[1] = tested on: T-cells of donors never exposed to SARS-CoV-2; type: cell-based, human; details: IFN-γ ELISPOT, unexposed donors
[2] = tested on: T-cells in PBMC of patients recovered from SARS-CoV-2 infection; type: cell-based, human
[3] = XS15 emulsified in Montanide ISA 51 VG
[4] = tested on: peptide vaccine-specific T-cells; type: in vivo, human; details: after one injection, preliminary
[5] = cited from earlier work

Compound	antibody induction against vaccine peptide (peptide-specific T-cells)	PRE cohort frequency [%] [1]	PRE cohort pos/tested [1]	SARS cohort frequency [%] [2]	SARS cohort pos/tested [2]	Persistence of induced immune responses [3]	Persistence of vaccinated peptides in granuloma on vaccination site [3]	Induction of T-cell responses against vaccine peptides, % of healthy volunteer (HV) and patients [4]	Granuloma volume at injection site (ultrasound) ([5]; 80 μg XS15, days 17 and 41)	Ex vivo T-cell responses in peripheral blood detectable ([5]; single vaccination)
CC(C)C[C@H](NC(=O)[C@@H](NC(=O)[C@H](CO)NC(=O)[C@H](Cc1ccc(O)cc1)NC(=O)[C@H](CC(=O)O)NC(=O)[C@H](C)NC(=O)[C@@H](N)C(C)C)C(C)C)C(=O)N[C@@H](Cc1ccc(O)cc1)C(=O)N[C@@H](CC(N)=O)C(=O)N[C@@H](CO)C(=O)N[C@@H](C)C(=O)N[C@@H](CO)C(=O)N[C@@H](Cc1ccccc1)C(=O)N[C@@H](CO)C(=O)N[C@H](C(=O)O)[C@@H](C)O [SEQ ID NO: 6]	no antibody induction was observed									
ASAFFGMSRIGMEVT (SARS-CoV-2) [SEQ ID NO: 5, SARS-CoV-2 nucleocapsid-derived HLA-DR peptide]		6%	1/18	52%	12/23					
RWYFYYLGTGPEAGL (SARS-CoV-2) [SEQ ID NO: 2, SARS-CoV-2 nucleocapsid-derived HLA-DR peptide]		6%	1/18	73%	16/22					
FYVYSRVKNLNSSRV (SARS-CoV-2) [SEQ ID NO: 9, SARS-CoV-2 envelope protein-derived HLA-DR peptide]		11%	2/19	50%	11/22					
ITRFQTLLALHRSYL [SEQ ID NO: 7]		5%	1/20	55%	12/22					
ASWFTALTQHGKEDL (SARS-CoV-2) [SEQ ID NO: 3, SARS-CoV-2 nucleocapsid-derived HLA-DR peptide]		6%	1/18	59%	13/22					
CCCCCCCCCCCCCCCC(=O)N[C@@H](CSC[C@@H](COC(=O)CCCCCCCCCCCCCCC)OC(=O)CCCCCCCCCCCCCCC)C(=O)NCC(=O)N[C@@H](CC(=O)O)C(=O)N1CCC[C@H]1C(=O)N[C@@H](CCCCN)C(=O)N[C@@H](Cc1c[nH]cn1)C(=O)N1CCC[C@H]1C(=O)N[C@@H](CCCCN)C(=O)N[C@@H](CO)C(=O)N[C@@H](Cc1ccccc1)C(=O)O [XS15] (Palmitoyl-C(Propyl(2R-PamO,3-PamO))GDPKHPKSF-OH; C-terminus assumed)						more than 1.5 years	at least 7 weeks	100%	about 8 ml	more than one year
LLLLDRLNQLESKMS (SARS-CoV-2) [SEQ ID NO: 4, SARS-CoV-2 nucleocapsid-derived HLA-DR peptide]		6%	1/17	64%	14/22					
SKWYIRVGARKSAPL [SEQ ID NO: 10]		25%	4/16	68%	15/22					
KDGIIWVATEGALNT (SARS-CoV-2) [SEQ ID NO: 1, SARS-CoV-2 nucleocapsid-derived HLA-DR peptide]		44%	8/18	91%	20/22					
